Source: US20240239786A1, “COMPOSITIONS AND METHODS FOR THE TREATMENT AND PREVENTION OF CANCER” (Yale University, priority 2021, published 2024)

How the values were obtained:
RNR = assay: dNTP measurement (HIV-1 RT-based dNTP assay) in PEO4 cells; assay type: cell-based; conditions: 50 μM DB4 or 1 μM triapine, 24 hr
Description: (§1) FIG. 2, comprising FIG. 2A through FIG. 2F, depicts representative results of follow-up assays of in silico hit compounds in PEO1 and PEO4 cells. FIG. 2A depicts representative results of cytotoxicity assays on selected 25 in silico hit compounds in PEO1 and PEO4 cells. Cells were plated for 24 hr and then treated with 50 μM compounds for 72 hr. For a positive control, cells were treated with 1 μM triapine for 72 hr. The percentage of cell survival was determined by the MTS cytotoxicity assay. […] Cells were treated with 50 μM compounds or 1 μM triapine for 24 hr. During the last hour, cells were pulse-labeled with EdU, stained with the Click-iT EdU Alexa Fluor 488 Assay Kit, counterstained with 7-AAD, and subsequently analyzed by flow cytometry. EdU-positive cells were gated to determine the percentage of the S phase cell population. […] During the last hour, cells were pulse-labeled with EdU, stained with the Click-iT EdU Alexa Fluor 488 Assay Kit, counterstained with 7-AAD, and subsequently analyzed by flow cytometry. […] The percentages of DNA synthesis in cells treated with each of 10 compounds and triapine relative to the DMSO-treated control is calculated and shown. […] Cells were extracted with 65% methanol for determination of each of dNTPs expressed as pmole/10^6 cells. […] The percentage of cell survival was determined by the MTS cytotoxicity assay. […]

PEO1 cells = assay: Reversal of RNR inhibition by supplementing deoxyribonucleosides (MTS); assay type: cell-based; conditions: addition of dA plus dG, or all dNs, 72 hr
Description: as §1

Compound | levels of dNTPs (RNR) | reversal of inhibitory effects on cell survival by dNs (PEO1 cells)
C=CCn1c(SCc2cccc(Cl)c2)nnc1C1CCN(Cc2nc3ccccc3s2)CC1 [DB4, 2-[(4-{4-allyl-5-[(3-chlorobenzyl)thio]-4H-1,2,4-triazol-3-yl}-1-piperidinyl)methyl]-1,3-benzothiazole] | significant decreases in the levels of dATP, dGTP, and dTTP | partially reversed
NC(=S)NN=Cc1ncccc1N [triapine, 3-aminopyridine-2-carboxaldehyde-thiosemicarbazone, reference compound] | significant and pronounced decreases in the levels of dATP and dGTP while causing a marked increase in dCTP and somewhat elevated dTTP | partially reversed
